This note sets out measurements from patent publication US9765069B2, “Antimicrobial compounds” (OXFORD UNIVERSITY INNOVATION LIMITED, priority 2012, dated 2017).

In brackets after ≈: the same amount, converted by molar mass.

In one assay the test system is E2. Kind of assay: MIC determination (bacteria), strain E2. The class given is cell-based, enterococcus. Conditions: 2-fold broth dilution. How it is done:
(§1) MIC determination (bacteria); MICs were determined based on Clinical and Laboratory Standards Institute (CLSI) methodology (Methods for dilution antimicrobial susceptibility tests for bacteria that grow aerobically; Approved Standard—seventh edition. 2006, M7-A7, CLSI, Wayne Pa.) by a 2-fold broth dilution technique in Mueller Hinton (pH7.4 Biorad). For S. pneumoniae, the medium was supplemented with 2.5% laked horse blood. For H. influenzae, the medium was haemophilus test medium (H.T.M.). Overnight cultures were diluted to obtain the final inoculum of 10^5 cfu/well. Incubation was 37° C. overnight in ambient air. The MIC was defined as the lowest concentration which inhibited all visual growth and expressed in μg/ml. For each bacterial species, all of the molecules were tested in the same experiment in order to give a head-to-head comparison.
On the technique in general: Broth dilution looks for growth in wells or tubes with falling amounts of substance.

In a further assay the test system is S4. Put plainly: MIC determination (bacteria), strain S4. The class given is cell-based, S. aureus. The conditions noted are these: 2-fold broth dilution. How it is done:
as §1

Another assay relates to P1. Put plainly: MIC determination (bacteria), strain P1. Format: cell-based, S. pneumoniae. Conditions: 2-fold broth dilution. The protocol: as §1
The subject of a further assay is H4. Kind of assay: MIC determination (bacteria), strain H4. Conditions: haemophilus test medium. The class given is cell-based, H. influenzae. The protocol: as §1
Assay [1] relates to S2 (S. aureus 2, MRSA in vivo). Put plainly: MIC determination (bacteria), strain S2. The class given is cell-based. The conditions noted are these: 2-fold broth dilution. The protocol:
as §1

A further assay has as its system E1. Put plainly: MIC determination (bacteria), strain E1. The class given is cell-based, enterococcus. The conditions noted are these: 2-fold broth dilution. The protocol:
as §1

In the next assay the test system is S26. Kind of assay: MIC determination (bacteria), strain S26. Format: cell-based, S. aureus. Conditions: 2-fold broth dilution. The protocol: as §1
The subject of the next assay is P9. Put plainly: MIC determination (bacteria), strain P9. The class given is cell-based, S. pneumoniae. The conditions noted are these: 2-fold broth dilution. How it is done:
as §1

Another assay deals with H3. Kind of assay: MIC determination (bacteria), strain H3. The conditions noted are these: haemophilus test medium. Format: cell-based, H. influenzae. The protocol:
as §1

A further assay relates to P9B. Kind of assay: MIC determination (bacteria), strain P9B. The class given is cell-based, S. pneumoniae. The conditions noted are these: 2-fold broth dilution. The protocol: as §1
Another assay concerns S1. Kind of assay: MIC determination (bacteria), strain S1. Conditions: 2-fold broth dilution. Format: cell-based, S. aureus. How it is done: as §1
Setting [2] is: Streptococcus pneumoniae, Table 2.

In the case of `CCCCCCCCCCCCCC(O)=C1C(=O)CCN(C(=O)c2ccccc2)C1=O` [25c], the “MIC E2” value in the assay with E2 (Table 1) stood at 1 µg/mL (≈ 2.34 µM). Also, in the assay on S4 (Table 1), the “MIC S4” value came to 1 µg/mL (≈ 2.34 µM). Moreover, in the assay with P1 (Table 1), the “MIC P1” value was found to be 1 µg/mL (≈ 2.34 µM). For the same molecule, in the assay with H4 (Table 1), the “MIC H4” value was determined as 32 µg/mL (≈ 74.8 µM). For the same molecule, the “MIC S2” value in assay [1] (Table 1) was 2 µg/mL (≈ 4.68 µM). Besides, in the assay on E1 (Table 1), the “MIC E1” value was determined as 2 µg/mL (≈ 4.68 µM). Moreover, the “MIC S26” value against S26 (Table 1) was 4 µg/mL (≈ 9.35 µM). Moreover, in the assay on P9 (Table 1), the “MIC P9” value stood at 1 µg/mL (≈ 2.34 µM). Also, the “MIC H3” value with H3 (Table 1) is >64 µg/mL. For the same molecule, the “MIC P9B” value with P9B (Table 1) was determined as 8 µg/mL (≈ 18.7 µM). Moreover, the “MIC S1” value against S1 (Table 1) worked out at 2 µg/mL (≈ 4.68 µM).

On to `CCCCCCC(=O)N1CC(=O)C(=C(O)CCCCc2ccccc2)C1=O` [28b], for which the “MIC E2” value with E2 (Table 2) turned out to be 1 µg/mL (≈ 2.69 µM). Also, in the assay with S4 (Table 2), the “MIC S4” value amounted to 2 µg/mL (≈ 5.38 µM). Further, in the assay on P1 (Table 2), the “MIC P1” value turned out to be 0.5 µg/mL (≈ 1.35 µM). For the same molecule, the “MIC H4” value with H4 (Table 2 and its footnote f) amounted to 2 µg/mL (≈ 5.38 µM). Further, the “MIC S2” value in [1] (Table 2) was found to be 2 µg/mL (≈ 5.38 µM). Further, in the assay on E1 (Table 2), the “MIC E1” value is 2 µg/mL (≈ 5.38 µM). The “MIC S26” value with S26 (Table 2) stood at 4 µg/mL (≈ 10.8 µM). Further, the “MIC P9” value in the assay on P9 (Table 2) is 0.25 µg/mL (≈ 0.673 µM). In the assay on H3 (Table 2), the “MIC H3” value is 8 µg/mL (≈ 21.5 µM). Further, the “MIC P9B” value with P9B (Table 2) was found to be 2 µg/mL (≈ 5.38 µM). Further, the “MIC S1” value against S1 (Table 2) amounted to 2 µg/mL (≈ 5.38 µM).

`CCCCCCCCCCC(O)=C1C(=O)C(CCSC)N(C(C)=O)C1=O` (centres unmarked) [24a]: the “MIC E2” value in the assay on E2 (Table 1) is 0.5 µg/mL (≈ 1.3 µM). In the assay on S4 (Table 1), the “MIC S4” value was 4 µg/mL (≈ 10.4 µM). Also, the “MIC P1” value against P1 (Table 1) was 0.5 µg/mL (≈ 1.3 µM). Besides, the “MIC H4” value in the assay on H4 (Table 1) worked out at 4 µg/mL (≈ 10.4 µM). Also, the “MIC S2” value in [1] (Table 1) amounted to 2 µg/mL (≈ 5.21 µM). In the assay with E1 (Table 1), the “MIC E1” value was found to be 0.5 µg/mL (≈ 1.3 µM). Further, in the assay with S26 (Table 1), the “MIC S26” value was determined as 8 µg/mL (≈ 20.9 µM). The “MIC P9” value against P9 (Table 1) worked out at 0.25 µg/mL (≈ 0.652 µM). In addition, the “MIC H3” value in the assay with H3 (Table 1) came to 8 µg/mL (≈ 20.9 µM). In addition, the “MIC P9B” value against P9B (Table 1) was 2 µg/mL (≈ 5.21 µM). In the assay with S1 (Table 1), the “MIC S1” value was found to be 0.5 µg/mL (≈ 1.3 µM).

Regarding `O=C1CCN(C(=O)c2ccccc2)C(=O)/C1=C(\O)CCc1ccc(-c2ccccc2C(F)(F)F)o1` [19e], the “MIC E2” value with E2 (Table 2) worked out at 2 µg/mL (≈ 4.14 µM). Further, the “MIC S4” value in the assay with S4 (Table 2) was 4 µg/mL (≈ 8.27 µM). The “MIC P1” value with P1 (Table 2) was 2 µg/mL (≈ 4.14 µM). Besides, in the assay on H4 (Table 2 and its footnote f), the “MIC H4” value stood at 16 µg/mL (≈ 33.1 µM). In addition, the “MIC S2” value in [1] (Table 2) worked out at 4 µg/mL (≈ 8.27 µM). Further, the “MIC E1” value against E1 (Table 2) was 2 µg/mL (≈ 4.14 µM). For the same molecule, the “MIC S26” value in the assay with S26 (Table 2) came to 4 µg/mL (≈ 8.27 µM). Further, the “MIC P9” value in the assay with P9 (Table 2) came to 2 µg/mL (≈ 4.14 µM). Further, in the assay on H3 (Table 2), the “MIC H3” value is >64 µg/mL. Also, in the assay with P9B (Table 2), the “MIC P9B” value turned out to be 8 µg/mL (≈ 16.5 µM). Moreover, the “MIC S1” value against S1 (Table 2) is 4 µg/mL (≈ 8.27 µM).

Regarding `CCCCCCC(=O)N1CC(=O)C(=C(O)CCc2ccc(SC)cc2)C1=O` [28d], the “MIC E2” value in the assay on E2 (Table 2) turned out to be 2 µg/mL (≈ 5.13 µM). Also, in the assay with S4 (Table 2), the “MIC S4” value amounted to 16 µg/mL (≈ 41.1 µM). For the same molecule, the “MIC P1” value in the assay on P1 (Table 2) was found to be 0.5 µg/mL (≈ 1.28 µM). Besides, in the assay on H4 (Table 2 and its footnote f), the “MIC H4” value is 1 µg/mL (≈ 2.57 µM). In addition, the “MIC S2” value in [1] (Table 2) stood at 8 µg/mL (≈ 20.5 µM). Also, the “MIC E1” value against E1 (Table 2) stood at 1 µg/mL (≈ 2.57 µM). For the same molecule, in the assay with S26 (Table 2), the “MIC S26” value was 32 µg/mL (≈ 82.2 µM). In the assay with P9 (Table 2), the “MIC P9” value was determined as 0.5 µg/mL (≈ 1.28 µM). In addition, in the assay with H3 (Table 2), the “MIC H3” value was 4 µg/mL (≈ 10.3 µM). Moreover, in the assay on P9B (Table 2), the “MIC P9B” value turned out to be 4 µg/mL (≈ 10.3 µM). Also, the “MIC S1” value in the assay on S1 (Table 2) is 4 µg/mL (≈ 10.3 µM).

Take `CCCC(=O)N1CC(=O)C(=C(O)CCCCC2CCCCC2)C1=O` [27o]: in the assay with E2 (Table 2), the “MIC E2” value was 2 µg/mL (≈ 5.96 µM). Also, the “MIC S4” value against S4 (Table 2) was determined as 16 µg/mL (≈ 47.7 µM). Also, the “MIC P1” value against P1 (Table 2) worked out at 0.5 µg/mL (≈ 1.49 µM). For the same molecule, the “MIC H4” value in the assay on H4 (Table 2 and its footnote f) worked out at 2 µg/mL (≈ 5.96 µM). The “MIC S2” value in assay [1] (Table 2) was 4 µg/mL (≈ 11.9 µM). For the same molecule, the “MIC E1” value with E1 (Table 2) was found to be 4 µg/mL (≈ 11.9 µM). Besides, in the assay on S26 (Table 2), the “MIC S26” value came out at 8 µg/mL (≈ 23.8 µM). For the same molecule, in the assay on P9 (Table 2), the “MIC P9” value was found to be 0.5 µg/mL (≈ 1.49 µM). Besides, the “MIC H3” value with H3 (Table 2) came out at 8 µg/mL (≈ 23.8 µM). In the assay with P9B (Table 2), the “MIC P9B” value worked out at 4 µg/mL (≈ 11.9 µM). In addition, the “MIC S1” value in the assay with S1 (Table 2) was determined as 4 µg/mL (≈ 11.9 µM).

As for `CSCCC1C(=O)/C(=C(/O)CC(C)(C)CC(=O)OCCC23CC4CC(CC(C4)C2)C3)C(=O)N1C(C)=O` (centres unmarked) [31i], the MIC against E2 (Enterococcus, Table 2) is 1 µg/mL (≈ 1.92 µM); in the assay on S4 (Staphylococcus aureus, Table 2), 16 µg/mL (≈ 30.8 µM); against P1 (setting [2]) it was 2 µg/mL (≈ 3.85 µM); against H4 (Haemophilus influenzae, Table 2 and its footnote f) it was 8 µg/mL (≈ 15.4 µM); in assay [1] (Staphylococcus aureus, MRSA, Table 2), 8 µg/mL (≈ 15.4 µM); against E1 (Enterococcus, Table 2) it was 2 µg/mL (≈ 3.85 µM). Also, the MIC with S26 (Staphylococcus aureus, Table 2) is > 64 µg/mL; with P9 (setting [2]), 1 µg/mL (≈ 1.92 µM); with H3 (Haemophilus influenzae, Table 2) it was > 64 µg/mL; against P9B (setting [2]), 4 µg/mL (≈ 7.7 µM); in the assay with S1 (Staphylococcus aureus, Table 2) it was 8 µg/mL (≈ 15.4 µM).
